Assay results as given in patent US20040121304A1, “Method for screening for progesterone receptor isoform-specific ligands and for tissue-selective progesterone receptor ligands” (priority 2004, published 2004).

How the values were obtained:
[1] = biological target: T1, hPR-A (progesterone receptor isoform A) (Homo sapiens, UniProt P06401); assay: Transactivation assay, SK-N-MC cells stably transfected with hPR-A and MTV-LUC reporter; type: cell-based; settings: for Emax / antagonism efficacy (PR-A): SK-N-MC hPR-A/MTV-LUC cells, 24 h incubation; for Emax: LUC activity relative to R5020 10^-7 mol/l = 100%, 1% ethanol = 0%, read-out: Agonism efficacy (PR-A); for antagonism efficacy (PR-A): inhibition of LUC induction by 10^-10 mol/l R5020
T1 construct: expressed in transfected cells; host or cells: SK-N-MC (human neuroblastoma) cells, stably transfected with phPR-2 (PR-A plasmid) plus pRSV-neo and pMTV-LUC
T1 sequence (P06401 1-769 isoform P06401-2): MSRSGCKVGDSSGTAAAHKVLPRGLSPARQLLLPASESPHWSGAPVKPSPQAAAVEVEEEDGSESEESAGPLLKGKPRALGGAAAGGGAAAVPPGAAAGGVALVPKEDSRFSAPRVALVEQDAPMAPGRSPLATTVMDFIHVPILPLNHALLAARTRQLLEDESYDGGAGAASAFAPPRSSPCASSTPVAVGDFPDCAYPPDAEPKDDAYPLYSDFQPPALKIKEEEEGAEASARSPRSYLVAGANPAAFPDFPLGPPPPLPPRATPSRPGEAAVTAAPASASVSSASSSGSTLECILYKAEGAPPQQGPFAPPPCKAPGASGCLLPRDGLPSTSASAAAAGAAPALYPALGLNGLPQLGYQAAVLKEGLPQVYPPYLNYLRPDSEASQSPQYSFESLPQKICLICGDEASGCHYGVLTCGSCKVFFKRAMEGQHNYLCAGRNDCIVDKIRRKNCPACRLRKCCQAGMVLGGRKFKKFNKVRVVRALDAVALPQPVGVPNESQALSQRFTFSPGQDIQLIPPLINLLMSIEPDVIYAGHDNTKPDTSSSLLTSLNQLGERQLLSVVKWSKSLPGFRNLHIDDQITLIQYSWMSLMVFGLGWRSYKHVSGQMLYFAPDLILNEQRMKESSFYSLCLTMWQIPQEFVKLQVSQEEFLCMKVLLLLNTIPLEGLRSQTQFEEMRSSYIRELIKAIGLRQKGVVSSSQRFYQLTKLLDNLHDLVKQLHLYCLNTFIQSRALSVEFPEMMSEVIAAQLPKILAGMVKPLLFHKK
Method: (§1) The method for screening for isoform-specific PR ligands according to the present invention is carried out with first and second SK-N-MC cells stably transfected with a plasmid expressing the hPR-A (first cells) or the hPR-B (second cells) and the LUC reporter gene linked to the hormonally responsive MTV promoter. A detailed description of how the cell lines according to the invention and used in this Example may be obtained is given in Example 5.
(§2) The cells are cultured in Minimum Essential Medium with Earl's Salts (S-MEM, without L-glutamine; Gibco BRL, no. 21090-022), supplemented with 10% fetal calf serum (FCS), penicillin 100U/streptomycin 100 μg/ml (Biochrom, no. A2213), L-glutamine 4 mmol/l (Gibco BRL, no. 25030-024), sodium pyruvate 1 mmol/l (Biochrom, no. L0473) and 1× non-essential amino acids (Biochrom, no. K0293) at a temperature of 37° C. and in an atmosphere of 5% carbon dioxide.
(§3) For the transactivation assay, the cells are seeded onto 96-well dishes (2×10^4 cells/dish) and cultured in a medium as described above, with the exception that the FCS is replaced by a 3% charcoal stripped FCS. 48 hours later, cells are contacted with prediluted test compounds. For determination of agonistic activity, cells are cultured in the presence of increasing concentrations (10^−6 to 10^−11 mol/l) of test compounds. As a positive control for reporter gene induction cells are treated with 10^−6 to 10^−11 mol/l R5020 (promegestone). As a negative control for reporter gene induction, cells are cultured in 1% ethanol. For determination of antagonistic activity, cells are treated with 10^−10 mol/l R5020 and additionally with increasing concentrations (10^−6 to 10^−11 mol/l) of test compounds. As a positive control for inhibition of reporter gene transcription, cells are cultured in increasing concentrations (10^−7 to 10^−12 mol/l) of the antiprogestin mifepristone. As a negative control for inhibition of reporter gene transcription, cells are cultured in 1% ethanol.
(§4) After incubation with test compounds for 24 hours, the medium is removed and cells are lysed with 20 μl of lysis buffer (Luciferase Assay System E 153A; Promega) and under agitation of the plate for 10 min. After addition of 30 μl of luciferase reagent (Luciferase Assay System E 151A+152A; Promega) within 30 seconds per plate, the activity of the luciferase reporter gene product is determined in the cell lysates by means of a Microlite ML 3000 microtiter plate luminometer (Dynatech) in cycle mode.
(§5) Evaluation of the response gives the efficacy [%] for both agonism and antagonism, and evaluation of the EC50 (for agonism) and IC50 (for antagonism) values gives the potency [nM]. Calculation of these values is conducted as follows:
(§6) Calculation of Agonistic Activity:
(§7) The LUC activity [%] for the measured data points is calculated as follows: [formula]
(§8) and CO=0% stimulation (ethanol, 1%).
(§9) Thus, the efficacy [%] is determined according to: [formula]
(§10) The potency [nM], i.e. the EC50, is determined graphically.
(§11) Calculation of Antagonistic Activity:
(§12) wherein CI=0% inhibition (R5020, 10^−10 mol/l) (corresponds to 100% stimulation)
(§13) and CO=100% inhibition (EtOH, 1%) (corresponds to 0% stimulation)
(§14) The potency [nM], i.e. the IC50, is determined graphically.

[2] = biological target: T2, hPR-B (progesterone receptor isoform B) (Homo sapiens, UniProt P06401); assay: Transactivation assay, SK-N-MC cells stably transfected with hPR-B and MTV-LUC reporter; type: cell-based; settings: for Emax / antagonism efficacy (PR-B): SK-N-MC hPR-B/MTV-LUC cells, 24 h incubation; for Emax: LUC activity relative to R5020 10^-7 mol/l = 100%, 1% ethanol = 0%, read-out: Agonism efficacy (PR-B); for antagonism efficacy (PR-B): inhibition of LUC induction by 10^-10 mol/l R5020; for Difference of agonism efficacies (PR-B - PR-A): indicating PR-B selectivity
T2 construct: expressed in transfected cells; host or cells: SK-N-MC (human neuroblastoma) cells, stably transfected with pRSVhPR-neo (built from pRC/RSV and hPR-1) and pMTV-LUC
T2 sequence (P06401 1-933): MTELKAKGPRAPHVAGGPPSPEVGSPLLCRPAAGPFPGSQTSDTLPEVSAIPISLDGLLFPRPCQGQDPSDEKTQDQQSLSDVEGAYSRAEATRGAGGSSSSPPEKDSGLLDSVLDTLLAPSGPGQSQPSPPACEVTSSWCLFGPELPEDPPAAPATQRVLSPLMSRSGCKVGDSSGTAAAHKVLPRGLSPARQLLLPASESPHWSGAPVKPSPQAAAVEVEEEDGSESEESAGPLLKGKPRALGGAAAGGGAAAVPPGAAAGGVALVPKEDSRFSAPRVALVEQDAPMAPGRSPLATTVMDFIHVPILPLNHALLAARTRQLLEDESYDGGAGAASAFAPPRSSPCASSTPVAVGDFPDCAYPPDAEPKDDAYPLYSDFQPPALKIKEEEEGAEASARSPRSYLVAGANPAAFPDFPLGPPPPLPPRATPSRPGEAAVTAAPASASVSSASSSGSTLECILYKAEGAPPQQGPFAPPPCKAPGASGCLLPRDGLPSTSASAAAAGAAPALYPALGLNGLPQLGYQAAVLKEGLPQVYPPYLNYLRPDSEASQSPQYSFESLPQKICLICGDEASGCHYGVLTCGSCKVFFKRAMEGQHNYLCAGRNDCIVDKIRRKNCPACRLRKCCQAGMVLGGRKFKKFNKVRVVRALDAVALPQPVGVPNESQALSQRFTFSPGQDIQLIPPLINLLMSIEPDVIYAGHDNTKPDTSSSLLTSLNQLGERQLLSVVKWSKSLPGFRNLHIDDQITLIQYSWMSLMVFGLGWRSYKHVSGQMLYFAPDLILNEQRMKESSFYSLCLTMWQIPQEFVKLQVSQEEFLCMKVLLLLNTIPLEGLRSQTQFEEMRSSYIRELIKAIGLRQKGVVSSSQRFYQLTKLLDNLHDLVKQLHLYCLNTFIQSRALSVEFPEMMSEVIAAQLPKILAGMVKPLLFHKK
Method: as §1, §2, §3, §4, §5, §6, §7, §8, §9, §10, §11, §12, §13, §14

SMILES	Emax [1] [%]	antagonism efficacy (PR-A) [1]	Emax [2] [%]	antagonism efficacy (PR-B) [2]	Difference of agonism efficacies (PR-B - PR-A) [2] [%]	Difference of agonism efficacies (PR-A - PR-B) ([1]; indicating PR-A selectivity) [%]	Difference of antagonism efficacies (PR-A - PR-B) ([1]; indicating PR-A selectivity) [%]
O=C1OCc2cc(NC(=O)C(O)(CC3(c4cccc(Br)c4)CC3)C(F)(F)F)ccc21 (stereo not drawn) [1-(3-bromophenyl)-N-(1,3-dihydro-1-oxo-5-isobenzofuranyl)-α-hydroxy-α-(trifluoromethyl)-cyclopropanepropanamide]	81	none	106	none	25	–	–
CC(CC(O)(CNc1ccc2c(c1)COC2=O)C(F)(F)F)c1ccccc1 (stereo not shown) [5-{[2-hydroxy-4-phenyl-2-(trifluoromethyl)pentyl]amino}-1(3H)-isobenzofiuranone]	39.9	none	56.8	none	17	–	–
CC(=O)O[C@]1(C(C)=O)CCC2C3C[C@H](C)C4=CC(=O)CC[C@@]45CC=C[C@@H](C[C@@]21C)C35 (stereo partly drawn) [17-(acetyloxy)-9,11-dihydro-6-methyl-(6α,11α)-6H′benzo[10,9,11]-19-norpregna-4,9(11)-diene-3,20-dione]	50	none	90	none	40	–	–
C#C[C@]1(O)C=CC2C3CCC4=CC(=O)CC[C@@]45CCC=C(C[C@@]21CC)C35 (stereo partly drawn) [13-ethyl-5α,9-dihydro-17-hydroxy-(17α)-6′H-benzo[10,9,11]-18,19-dinorpregna-4,9(11),15-trien-20-yn-3-one]	85	none	108	none	23	–	–
CC(=O)O[C@]1(C(C)=O)CC[C@H]2[C@@H]3C=C(C)C4=CC(=O)CC[C@]4(C)[C@H]3CC[C@@]21C [17-acetoxy-6-methyl-4,6-pregnadiene-3,20-dione]	35	none	81	none	46	–	–
C#C[C@]1(O)CCC2C3CCC4=CC(=O)CC[C@@]45CC=C[C@@H](C[C@@]21CC)C35 (stereo partly drawn) [13-ethyl-9,11-dihydro-17-hydroxy-(11α,17α)-6′H-benzo[10,9,11]-18,19-dinorpregna-4,9(11)-dien-20-yn-3-one]	129	none	108	none	–	21	–
C=C[C@]1(O)CCC2C3CCC4=CC(=O)CC[C@@]45CC=C[C@@H](C[C@@]21CC)C35 (stereo partly drawn) [13-ethyl-9,11-dihydro-17-hydroxy-(11α,17α)-6′H-benzo[10,9,11]-18,19-dinorpregna-4,9(11),20-trien-3-one]	132	none	108	none	–	24	–
C#C[C@]1(O)C=CC2C3CCC4=CC(=O)CC[C@@]45CC=C[C@@H](C[C@@]21C)C35 (stereo partly drawn) [9,11-dihydro-17-hydroxy-(11α,17α)-6′H-benzo[10,9,11]-19-norpregna-4,9(11), 15-trien-20-yn-3-one]	131	none	114	none	–	17	–
CC(=O)O[C@]1(C(C)=O)CCC2C3C=C(Cl)C4=CC(=O)CC[C@@]45CC[C@@H](C[C@@]21C)C35 (stereo partly drawn) [17-(acetyloxy)-6-chloro-9,11-dihydro-(11α)-cyclopenta[10,9,11]-19-norpregna-4,6,9(11)-triene-3,20-dione]	29	45%	50	30%	21	–	15
